How the values were obtained:
[1] = tested on: serum enzymes GOT and GPT; experiment: galactosamine test (liver protection, serum enzymes GOT and GPT); format: in vivo; conditions: rats
Procedure: (§1) These tests have been described in the already-quoted work by G. Vogel et al. published in Arzneimittelforschung, volume 25 (1975), pages 82 to 89 and 179 to 188.
In the galactosamine tests the rats received in groups each of 15 animals 100 mg/kg of the compound to be tested N-(5-(trans-2,3-dihydro-7-methoxy-3-methyl-5-(E)-propenylbenzofuran-2-yl)- 2-hydroxy-3-methoxy-phenylmethyl)-N-(2-hydroxyethyl)-N-methyl-ammonium chloride and for comparison purposes Silymarine in the tragacanth suspension perorally, one hour later interperitoneally 350 mg/kg of galactosamine hydrochloride and 24 hours later blood samples were taken for determining the serum enzymes GOT and GPT.

[2] = tested on: mice; experiment: α amanitine test (mortality); format: in vivo; conditions: 20 per group, 50 mg/kg i.v., 0.7 mg/kg α amanitine i.p. 1 h later, observed 7 days
Procedure: as §1
In the α amanitine test the mice received in groups of 20 animals each 50 mg/kg of N-(5-(trans-2,3-dihydro-7-methoxy-3-methyl-5-(E)-propenylbenzofuran-2-yl)-2--hydroxy-3-methoxyphenyl-methyl)-N) (2-hydroxyethyl)-N-methyl ammonium chloride and for comparison Silymarine intravenously and an hour later 0.7 mg/kg of α amanitine intraperitoneally.

[3] = toxicologic investigations (LD50); conditions: rat, in vivo, po; rats, peroral application
Excerpt: The toxicologic investigations indicate a good compatibility of the compounds produced by the process according to the invention.

[4] = tested on: experimental liver damage; experiment: hexobarbitone sleep test (experimental liver damage by carbon tetrachloride); format: in vivo; conditions: rats
Procedure: A standard testing process for pharmacological effect for experimental liver damage is the hexobarbitone sleep test, whose execution is described among others in a work by G. Vogel et al. in the Arzneimittelforschung, volume 25 (1975), pp. 82-89 and pp. 179-188. For this purpose 100 mg/kg of the compound to be tested were given to rats in groups each of 15 animals in carboxymethyl cellulose intraperitoneally and 90 minutes later 0.3 ml/kg carbon tetrachloride in olive oil by means of a throat probe. The rats were anaesthetised 48 hours later by intraperitoneal dosing of 70 mg/kg of hexabarbitone and the sleep duration was determined: […]

[5] = 100 mg/kg perorally, enzyme GPT
[6] = 15 per group, 100 mg/kg perorally in tragacanth suspension, 350 mg/kg galactosamine hydrochloride i.p. 1 h later, blood samples 24 h later

Structure (SMILES)	effect on GPT compared with Silymarine [1, 5]	statistical significance of the effect on GPT [1, 5]	GOT [1, 6]	GPT [1, 6]	mortality rate [2]	LD50 [3]	statistical significance of the effect (sleep duration) ([4]; 100 mg/kg i.p., carbon tetrachloride)	sleep duration ([4]; 15 per group, 100 mg/kg i.p. in carboxymethyl cellulose, 0.3 ml/kg carbon tetrachloride 90 min later, 70 mg/kg hexobarbitone i.p. after 48 h)
C/C=C/c1cc(OC)c2c(c1)[C@@H](C)[C@H](c1cc(CN(C)CCO)c(O)c(OC)c1)O2.Cl (relative stereo) [N-(5-(trans-2,3-dihydro-7-methoxy-3-methyl-5-(E)-propenylbenzofuran-2-yl)-2-hydroxy-3-methoxy-phenylmethyl)-N-(2-hydroxyethyl)-N-methyl-ammonium chloride]	clearly better than that of Silymarine	highly significant	422	185	20%	4000 to 16000 mg/kg		
C/C=C/c1cc(OC)c2c(c1)[C@@H](C)[C@H](c1ccc(O)c(OC)c1)O2 (relative stereo) [dehydrodiisoeugenol, trans-2,3-dihydro-2-(4-hydroxy-3-methoxyphenyl)-7-methoxy-3-methyl-5-(E)-propenylbenzofurane]							highly significant	97 min

Source: patent US4256764A, “Process for making derivatives of dimers of isoeugenol” (PLC Pharmaceutical Licenses Co. Ltd., priority 1978, dated 1981)
